According to the supplement of paper PMC10307832:

Columns and labels:
Experiment in all cases: relative viability (nuclei count vs DMSO), 5 days (fraction); higher = more cells survive
Bexarotene + Navitoclax = compound: C=C(c1ccc(C(=O)O)cc1)c1cc2c(cc1C)C(C)(C)CCC2(C)C [Bexarotene] + CC1(C)CCC(c2ccc(Cl)cc2)=C(CN2CCN(c3ccc(C(=O)NS(=O)(=O)c4ccc(N[C@H](CCN5CCOCC5)CSc5ccccc5)c(S(=O)(=O)C(F)(F)F)c4)cc3)CC2)C1 [Navitoclax] (partner 0.5 µM)
Summary of the method: (§1)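 Medians of duplicate plates are given as relative viability. That measure is the nuclei count in treated wells divided by the count in vehicle wells. Counts were taken on 4× images of lung cancer cell lines in 1536-well plates, 5 days after pin-tool dosing the day after seeding with one drug alone or a fixed anchor-drug dose plus five library-drug doses (not always all listed) in √10 steps.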

Bexarotene + Linsitinib = compound: C=C(c1ccc(C(=O)O)cc1)c1cc2c(cc1C)C(C)(C)CCC2(C)C [Bexarotene] + C[C@]1(O)C[C@@H](c2nc(-c3ccc4ccc(-c5ccccc5)nc4c3)c3c(N)nccn32)C1 [Linsitinib] (partner 1 µM)
Summary of the method: as §1

Bexarotene + Alpelisib = compound: C=C(c1ccc(C(=O)O)cc1)c1cc2c(cc1C)C(C)(C)CCC2(C)C [Bexarotene] + Cc1nc(NC(=O)N2CCC[C@H]2C(N)=O)sc1-c1ccnc(C(C)(C)C(F)(F)F)c1 [Alpelisib] (partner 2 µM)
Summary of the method: as §1

Bexarotene + Vorinostat = compound: C=C(c1ccc(C(=O)O)cc1)c1cc2c(cc1C)C(C)(C)CCC2(C)C [Bexarotene] + O=C(CCCCCCC(=O)Nc1ccccc1)NO [Vorinostat] (partner 1 µM)
Summary of the method: as §1

Row | Cell Line | relative viability (Bexarotene + Navitoclax; first compound 0.08 µM) | relative viability (Bexarotene + Navitoclax; first compound 0.253 µM) | relative viability (Bexarotene + Navitoclax; first compound 0.8 µM) | relative viability (Bexarotene + Navitoclax; first compound 2.53 µM) | relative viability (Bexarotene + Navitoclax; first compound 8 µM) | relative viability (Bexarotene + Linsitinib; first compound 0.08 µM) | relative viability (Bexarotene + Linsitinib; first compound 0.253 µM) | relative viability (Bexarotene + Linsitinib; first compound 0.8 µM) | relative viability (Bexarotene + Linsitinib; first compound 2.53 µM) | relative viability (Bexarotene + Linsitinib; first compound 8 µM) | relative viability (Bexarotene + Alpelisib; first compound 0.08 µM) | relative viability (Bexarotene + Alpelisib; first compound 0.253 µM) | relative viability (Bexarotene + Alpelisib; first compound 0.8 µM) | relative viability (Bexarotene + Alpelisib; first compound 2.53 µM) | relative viability (Bexarotene + Alpelisib; first compound 8 µM) | relative viability (Bexarotene + Vorinostat; first compound 0.08 µM) | relative viability (Bexarotene + Vorinostat; first compound 0.253 µM) | relative viability (Bexarotene + Vorinostat; first compound 0.8 µM) | relative viability (Bexarotene + Vorinostat; first compound 2.53 µM) | relative viability (Bexarotene + Vorinostat; first compound 8 µM)
1 | LCLC-97TM1 | 0.459 | 0.4 | 0.413 | 0.427 | 0.381 | 0.185 | 0.193 | 0.185 | 0.207 | 0.224 | 0.333 | 0.285 | 0.274 | 0.264 | 0.263 | 1.02 | 0.804 | 0.586 | 0.656 | 0.678
2 | HARA | 1.23 | 1.27 | 1.17 | 1.07 | 0.854 | 0.971 | 0.939 | 0.709 | 0.748 | 0.648 | 0.705 | 0.714 | 0.456 | 0.52 | 0.597 | 0.655 | 0.512 | 0.584 | 0.606 | 0.51
3 | HCC-78 | 0.673 | 0.714 | 0.667 | 0.644 | 0.863 | 0.524 | 0.461 | 0.44 | 0.374 | 0.392 | 0.315 | 0.268 | 0.28 | 0.25 | 0.259 | 0.425 | 0.523 | 0.513 | 0.402 | 0.459
4 | NCI-H1666 | 0.98 | 0.922 | 0.864 | 0.897 | 0.723 | 0.889 | 0.783 | 0.844 | 0.931 | 0.661 | 1 | 0.877 | 0.862 | 0.897 | 0.761 | 0.815 | 0.959 | 0.829 | 0.916 | 0.791
5 | NCI-H2347 | 0.971 | 0.846 | 0.63 | 0.793 | 0.783 | 1.06 | 1.02 | 0.749 | 0.975 | 1.02 | 1.05 | 1.03 | 0.748 | 1.01 | 1.11 | 0.703 | 0.622 | 0.513 | 0.681 | 0.557
6 | NCI-H838 | 1.13 | 1.33 | 1.23 | 1.32 | 1.22 | 1.13 | 1.11 | 1.03 | 1.17 | 1.06 | 1.1 | 1.11 | 1.14 | 1.08 | 1.06 | 0.764 | 0.767 | 0.742 | 0.585 | 0.693
7 | NCI-H2023 | 0.991 | 0.993 | 0.921 | 0.851 | 0.729 | 0.785 | 0.911 | 0.735 | 0.683 | 0.625 | 0.622 | 0.618 | 0.615 | 0.548 | 0.57 | 0.644 | 0.941 | 0.619 | 0.57 | 0.528
8 | 201T | 1.22 | 1.21 | 1.23 | 1.2 | 1.12 | 0.952 | 1.02 | 0.874 | 0.951 | 0.843 | 1.02 | 0.991 | 0.941 | 0.916 | 0.909 | 1.03 | 0.997 | 0.894 | 0.888 | 0.802
9 | NCI-H1915 | 0.846 | 0.792 | 0.834 | 0.77 | 0.728 | 1.16 | 1.12 | 1.03 | 1.04 | 1.07 | 1.17 | 1.06 | 1.04 | 1 | 0.95 | 0.544 | 0.579 | 0.482 | 0.513 | 0.513
10 | NCI-H2009 | 1.24 | 1.28 | 1.23 | 1.17 | 1.19 | 1.33 | 1.36 | 1.13 | 1.18 | 1.13 | 1.27 | 1.23 | 1.11 | 1.17 | 1.06 | 0.692 | 0.86 | 0.845 | 0.76 | 0.834
11 | BEN | 0.083 | 0.0587 | 0.063 | 0.0608 | 0.0559 | 1.04 | 0.883 | 0.847 | 0.76 | 0.742 | 1.03 | 0.962 | 0.898 | 0.836 | 0.893 | 0.685 | 0.583 | 0.531 | 0.531 | 0.547
12 | PC-14 | 1.12 | 1.11 | 0.948 | 0.841 | 0.809 | 0.99 | 1.06 | 0.935 | 1 | 0.934 | 1.02 | 1.06 | 0.9 | 0.957 | 0.921 | 0.882 | 0.844 | 0.643 | 0.741 | 0.636
13 | SK-MES-1 | 1.47 | 1.2 | 1.25 | 1.33 | 1.09 | 1.15 | 1.18 | 0.983 | 1.05 | 0.97 | 1.06 | 0.948 | 0.961 | 0.893 | 0.956 | 1.2 | 1.28 | 1.11 | 1.06 | 0.936
14 | NCI-H727 | 0.467 | 0.38 | 0.452 | 0.354 | 0.405 | 0.286 | 0.408 | 0.305 | 0.311 | 0.284 | 0.808 | 0.522 | 0.503 | 0.58 | 0.701 | 1.46 | 1.16 | 1.26 | 1.18 | 0.971
15 | NCI-H1355 | 1.03 | 0.998 | 0.928 | 1.17 | 0.84 | 1.02 | 0.945 | 0.801 | 0.923 | 0.764 | 0.957 | 0.894 | 0.765 | 0.916 | 0.876 | 0.672 | 0.724 | 0.584 | 0.604 | 0.619
16 | NCI-H1975 | 1.29 | 1.19 | 1.3 | 1.22 | 1.09 | 1.06 | 1.12 | 1.08 | 1.22 | 1.1 | 0.705 | 0.783 | 0.665 | 0.669 | 0.836 | 0.884 | 0.758 | 0.725 | 0.754 | 0.795
